This note sets out measurements from patent US11291654B2, “Formulations of cycloserine compounds and applications thereof” (SyneuRx International (Taiwan) Corp., priority 2018, dated 2022).

The format of the data set is physicochemical. The protocol: 1. Stress Testing of D-cycloserine Stability test was held with 500 mg of commercially available D-cycloserine from Macleods Pharma, opened and stored under high humidity (>90% RH or 75% RH) at room temperature, a high temperature (40° C. or 60° C.) or a light condition for 10 days. […] In the following experiments, the total impurity was set up to confirm the stability of D-cycloserine.

Where two headings read alike, the source gives them in different places.

As for `N[C@H]1CONC1=O` (stereo in doubt) [D-cycloserine (Macleods Pharma), 4-amino-3-isoxazolidinone], the Appearance result reads like this: (0 day) “White Powder”; (40° C., 10 days) “White Powder”; (60° C., 10 days) “White Powder”; (Light, 10 days) “White Powder”. Besides, the “Total Impurity (%)” value is, setting by setting: (0 day) 0.59%; (25° C., 75% RH, 10 days) 1.71%; (25° C., >90% RH, 10 days) 86.64%; (40° C., 10 days) 0.70%; (60° C., 10 days) 0.66%; (Light, 10 days) 0.96%. Besides, the “Moisture-absorption Weight Gain (%)” value was 0.25% (25° C., 75% RH, 10 days) and 21.11% (25° C., >90% RH, 10 days). For the same compound, the “Stability (in words)” value (10 days) was “relatively stable at 40 °C and 60 °C”.
